# Reference: the Kinase Knowledgebase extract (Sharma et al. 2016)
# Molecular target: ROCK2 (human) (UniProt O75116)
# Assay: Inhibition of ROCK2 Kinase Activity
# Chain of ROCK2 (human) (O75116 whole entry, looked up): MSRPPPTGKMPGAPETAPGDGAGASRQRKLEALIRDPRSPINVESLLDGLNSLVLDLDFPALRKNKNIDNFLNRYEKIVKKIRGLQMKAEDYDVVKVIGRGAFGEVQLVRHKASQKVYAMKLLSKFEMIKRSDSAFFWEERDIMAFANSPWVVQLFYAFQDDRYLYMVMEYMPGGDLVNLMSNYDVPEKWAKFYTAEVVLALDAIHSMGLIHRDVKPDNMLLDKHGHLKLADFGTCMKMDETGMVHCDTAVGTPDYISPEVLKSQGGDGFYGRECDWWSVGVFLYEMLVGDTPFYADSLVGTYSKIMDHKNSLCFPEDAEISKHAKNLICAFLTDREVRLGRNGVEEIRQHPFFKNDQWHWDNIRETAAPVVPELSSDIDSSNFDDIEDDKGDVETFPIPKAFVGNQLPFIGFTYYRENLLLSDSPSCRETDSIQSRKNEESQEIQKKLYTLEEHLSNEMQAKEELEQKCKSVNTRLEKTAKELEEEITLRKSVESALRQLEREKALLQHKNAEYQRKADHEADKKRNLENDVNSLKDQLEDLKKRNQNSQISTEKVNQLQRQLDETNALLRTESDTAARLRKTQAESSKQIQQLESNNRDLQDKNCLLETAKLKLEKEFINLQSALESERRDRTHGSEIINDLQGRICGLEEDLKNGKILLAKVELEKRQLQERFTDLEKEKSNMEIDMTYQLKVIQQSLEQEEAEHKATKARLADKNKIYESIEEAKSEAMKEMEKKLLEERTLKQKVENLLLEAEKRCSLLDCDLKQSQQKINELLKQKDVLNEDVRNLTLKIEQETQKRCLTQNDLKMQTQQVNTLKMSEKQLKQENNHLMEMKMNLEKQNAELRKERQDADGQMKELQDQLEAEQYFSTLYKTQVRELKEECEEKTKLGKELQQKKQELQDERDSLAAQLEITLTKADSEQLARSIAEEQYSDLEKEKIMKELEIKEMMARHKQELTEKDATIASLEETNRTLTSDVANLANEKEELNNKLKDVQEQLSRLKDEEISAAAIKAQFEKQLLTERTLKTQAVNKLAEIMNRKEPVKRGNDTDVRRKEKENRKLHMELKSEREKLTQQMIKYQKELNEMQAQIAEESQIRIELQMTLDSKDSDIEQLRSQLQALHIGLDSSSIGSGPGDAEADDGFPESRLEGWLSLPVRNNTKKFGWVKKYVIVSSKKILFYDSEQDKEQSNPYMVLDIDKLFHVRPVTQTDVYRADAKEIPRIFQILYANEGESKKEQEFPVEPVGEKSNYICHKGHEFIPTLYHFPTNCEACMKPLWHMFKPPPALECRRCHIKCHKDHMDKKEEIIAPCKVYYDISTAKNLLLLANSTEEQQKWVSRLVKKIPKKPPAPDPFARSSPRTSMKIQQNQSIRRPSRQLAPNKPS
row,SMILES,IC50
1,CN1CCCC(COc2ccc3cnccc3c2Br)C1 (stereo not drawn),≤ 1 µM
2,c1ccc2oc(-c3c(OC4CCNCC4)ccc4cnccc34)cc2c1,≤ 1 µM
3,COc1ccc(-c2c(OC3CCNCC3)ccc3cnccc23)cc1N,≤ 1 µM
4,Cc1cc(OC2CCNCC2)c(C)c2ccncc12,≤ 1 µM
5,COc1cc(Nc2cc3cc(OC4CCNCC4)ccc3cn2)cc(OC)c1OC,≤ 1 µM
6,Ic1c(OC2CCNCC2)ccc2cnccc12,≤ 1 µM
7,Brc1c(OC2CCNCC2)ccc2cnccc12,≤ 1 µM
8,c1ccc(-c2cc3cnccc3cc2OC2CCNCC2)cc1,≤ 1 µM
9,Clc1cncc2ccc(OC3CCNCC3)cc12,≤ 1 µM
10,Clc1cc(OC2CCNCC2)cc2ccncc12,≤ 1 µM
11,COc1ccc2cc(CN3CCC(Oc4ccc5cnccc5c4)CC3)ccc2c1,≤ 1 µM
12,c1cc2c(cc1Nc1cc3cc(OC4CCNCC4)ccc3cn1)OCO2,≤ 1 µM
13,Clc1cc2cnccc2c(Cl)c1OC1CCNCC1,≤ 1 µM
